Active and inactive are the calls of the source. The rule behind the calls is not given here. Where a SMILES comes first, the peptide text is derived from it. The star is where a group is joined. Mob = COc1ccc(C*)cc1; Bn = c1ccc(C*)cc1
Experiments:
Format in all cases: functional
Cavia porcellus [1] = organism: Cavia porcellus; test: Relative affinity in guinea pig ileum(GPI) was determined
Cavia porcellus [2] = organism: Cavia porcellus; test: Intrinsic activity in guinea pig ileum(GPI) was determined
Cavia porcellus [3] = organism: Cavia porcellus; test: The concentration required to produce 50% of the maximal effect in guinea pig ileum(GPI)
Cavia porcellus [4] = organism: Cavia porcellus; test: Relative affinity in guinea pig trachea(GPT) was determined
Cavia porcellus [5] = organism: Cavia porcellus; test: Intrinsic activity in guinea pig trachea(GPT) was determined
Cavia porcellus [6] = organism: Cavia porcellus; test: The concentration required to produce 50% of the maximal effect in guinea pig trachea(GPT)
Oryctolagus cuniculus [7] = organism: Oryctolagus cuniculus; test: Intrinsic activity in rabbit mesenteric vein(RMV) was determined
Oryctolagus cuniculus [8] = organism: Oryctolagus cuniculus; test: Relative affinity in rabbit mesenteric vein(RMV) was determined
Oryctolagus cuniculus [9] = organism: Oryctolagus cuniculus; test: The concentration required to produce 50% of the maximal effect in rabbit mesenteric vein(RMV)
Cavia porcellus [10] = organism: Cavia porcellus; test: The concentration required to produce 50% of the maximal effect in guinea pig trachea(GPT) at 10e-4 M; Inactive
Oryctolagus cuniculus [11] = organism: Oryctolagus cuniculus; test: The concentration required to produce 50% of the maximal effect in rabbit mesenteric vein(RMV) at 10e-4 M; Inactive

Compound	AR (Cavia porcellus [1])	Alpha E (Cavia porcellus [2])	pD2 (Cavia porcellus [3])	AR (Cavia porcellus [4])	Alpha E (Cavia porcellus [5])	pD2 (Cavia porcellus [6])	Alpha E (Oryctolagus cuniculus [7])	AR (Oryctolagus cuniculus [8])	pD2 (Oryctolagus cuniculus [9])	pD2 (Cavia porcellus [10])	pD2 (Oryctolagus cuniculus [11])
CC(C)C[C@@H]1NC(=O)CNC(=O)[C@H](Cc2ccccc2)NC(=O)[C@H](Cc2ccccc2)NC(=O)[C@@H](N)CSSC[C@@H](C(N)=O)NC1=O	0.02	0.7	4.83								
COc1ccc(CSC[C@H](N)C(=O)N[C@@H](CCC(N)=O)C(=O)N[C@@H](Cc2ccccc2)C(=O)N[C@@H](Cc2ccccc2)C(=O)NCC(=O)N[C@@H](CC(C)C)C(=O)N[C@@H](CSCc2ccccc2)C(N)=O)cc1 (H-C(Mob)QFFGLC(Bn)-NH2)	0.8	1.2	6.37	3	0.8	5.22	0.4	2.8	5.98		
CC(C)C[C@H]1NC(=O)CNC(=O)[C@@H](Cc2ccccc2)NC(=O)[C@H](Cc2ccccc2)NC(=O)[C@@H](N)CSSC[C@H](C(N)=O)NC1=O										inactive	inactive
